We go through 131 compounds from the pKa sets of Baltruschat and Czodrowski (2020).

Structures are written as SMILES.

For the first series the following is noted: acidic group.
The compound `S=C(Nc1ccc(Cl)c(Cl)c1)c1ccccc1` gave a pKa of 9.96.
In turn, `O=C(O)CC[C@@H]1NC(=O)CNC1=O` registered a pKa of 4.36.
On the same count and under the same terms, as for `Sc1[nH+]ccc2ccccc12`, the figure is -1.9; as for `O=C(O)C1CCC[NH2+]1` (stereo unspecified), 1.99; as for `Cn1cnc2c1NC=NS2(=O)=O`, 4.45.
Compound `Cc1nn(-c2ccccc2)c(O)c1C` yielded a pKa of 11.3.
Turning to `Cc1cc(C=O)c(O)c(C=O)c1`, the pKa was 6.2.
In turn, `CC(=O)C(C=O)C(C)=O` returned a pKa of 4.6.
Regarding `S=C(S)N1CCCC1`, the pKa amounted to 2.97.
In turn, `O=C(O)[C@H]1CC[C@@H](O)CC1` gave a pKa of 4.84.
`CC(C)(/C=C/C(=O)[O-])c1cc([N+](=O)[O-])ccc1O` displayed a pKa of 7.24.
For the compound `Oc1c(Cl)cc(Cl)c2cccnc12`, the pKa was 7.51.
Still for that read-out and setting: the figure for `Cc1nn(-c2ccccc2)cc1C(=O)O` is 4.58; for `C[C@@H]1CCC[C@H](C(=O)O)C1` it is 4.88; for `OC(CS)CS` it is 9.17.
In turn, `COc1cc(/C=N/c2ncc3nc[nH]c3n2)ccc1O` displayed a pKa of 8.91.
The compound `O=C(Cc1ccccc1)c1cc[n+](Cc2ccccc2)cc1` showed a pKa of 8.8.
Turning to `Cc1cc([N+](=O)[O-])cc2c1nnn2O`, the pKa is 3.43.
Same read-out and setting: as for `NC(=O)[C@@H](N)CSSC[C@H](N)C(N)=O`, the figure is 6.41; as for `Cc1cc(CO)c(O)c(CO)c1`, 9.92; as for `Cc1cccc(C)c1O`, 10.6.
`NCc1nc2ccccc2[nH]1` yielded a pKa of 12.8.
`[NH3+]CCCCCCCC(=O)O` registered a pKa of 4.5.
The same measure, in the same setting: as for `CC[Si](C)(C)CC(=O)O`, the figure is 5.4; as for `COc1ncnc2nc[nH]c12`, 9.16.
For the compound `Clc1ncnc2nc[nH]c12`, the pKa is 7.75.
As for `O=C1NC(C(=O)O)CC1O` (stereo unspecified), the pKa was 3.8.
Regarding `CC1(C)S[C@H]2[C@@H](NC(=O)Cc3ccc(O)cc3)C(=O)N2[C@@H]1C(=O)O`, the pKa stood at 2.62.
In turn, `N#Cc1ccc(O[C@H]2O[C@@H](C(=O)O)[C@H](O)[C@@H](O)[C@@H]2O)cc1` registered a pKa of 3.22.
`O=C(O)[C@H]1C[C@@H]1c1ccc([N+](=O)[O-])cc1`: the pKa stood at 4.45.
On to `C[Si](C)(C)CCCCCC(=O)O`, for which the pKa came to 5.06.
For the compound `CCCCCCCCCCCCCCC(=O)O`, the pKa amounted to 5.01.
In turn, `O=C(O)[C@@H]1O[C@H](Oc2ccc3[nH+]c(O)ccc3c2)[C@@H](O)[C@H](O)[C@H]1O` returned a pKa of 3.07.
`O=C(O)c1[nH]c2ccccc2[nH+]1` came in with a pKa of 0.4.
Turning to `[NH3+]C/C=C/C(=O)O`, the pKa worked out at 3.55.
The compound `O=C(O)c1cc([N+](=O)[O-])ccc1Sc1ccccc1` showed a pKa of 3.22.
`Cc1ccccc1NN=C(C#N)C#N` returned a pKa of 6.9.
For the compound `O=C(O)C1CC1(Cl)Cl` (stereo unspecified), the pKa is 3.51.
The same measure, in the same setting: as for `O=C(O)c1cc2ccccc2o1`, the figure is 2.84; as for `C[Si](C)(C)CCCC(=O)O`, 4.89; as for `CC(S)C(=O)[O-]` (stereo unspecified), 10.1.
Turning to `CC(=O)NCCS`, the pKa stood at 9.5.
On the same count and under the same terms, the figure for `O=C(O)[C@@H]1CC[C@H](C(=O)[O-])[Se]1` is 4.55; for `Oc1ccc(Cl)cc1` it is 9.29.
`Cc1ncc(CO)c(CO)c1O` displayed a pKa of 8.98.
`[NH3+]c1cccc(O[C@H]2O[C@@H](C(=O)O)[C@H](O)[C@@H](O)[C@@H]2O)c1`: the pKa came to 2.97.
`c1ncc2[nH]cnc2n1` yielded a pKa of 8.92.
Still for that read-out and setting: as for `NC(=O)CCCc1ccccn1`, the figure is 5.48.
`CC(C)([NH3+])C(=O)O`: the pKa came to 2.39.
Same read-out and setting: as for `O=C(O)c1cnoc1`, the figure is 3.39; as for `NC(=S)C(N)=S`, 10.9; as for `CC(C)c1nnn[nH]1`, 5.55.
`CC[NH+](CC)CCCNC(=O)/C=N/O` returned a pKa of 8.75.
As for `[O-]c1cc(O)c2ccccc2[nH+]1`, the pKa is 5.86.
As for `Oc1ccc2nnccc2c1`, the pKa is 7.52.
The same measure, in the same setting: as for `O=C(N/N=C/c1ccccc1O)c1ccncc1`, the figure is 8.31; as for `O=C(O)c1cnccn1`, 2.7; as for `Cc1cc(Br)cc(Br)c1O`, 7.6.
The same measure, in the same setting: the figure for `O=C(c1ccccc1)c1ccc([O-])[n+](O)c1` is 5.13; for `N#CC(Br)C#N` it is 5.
The same measure, in the same setting: as for `O=Cc1cccc(B(O)O)c1`, the figure is 7.8.

Staying with this series, now noted: basic group.
For `O=[N+]([O-])c1ccc2cccnc2c1O`, the pKa was 1.94.
For the compound `CC(C)(C)Nc1ccccc1`, the pKa came out at 7.15.
Consider `CC1=C(CC(C)NCC(O)c2ccc(Cl)cc2)CCC1(C)C` (stereo unspecified), for which the pKa worked out at 8.55.
The same measure, in the same setting: as for `CCN(CC)CCCCCCCC(C)Nc1c2ccc(Cl)cc2nc2ccc(OC)cc12` (stereo unspecified), the figure is 10.4.
The compound `CO[C@H]1C=CC2=CCN3CC[C@H](CO)/C(=C\CO)[C@]23C1` gave a pKa of 7.79.
Same read-out and setting: the figure for `Nc1ccc2[nH]c(Cc3ccccc3)nc2c1` is 6.4.
As for `CCCCCCCCN`, the pKa amounted to 10.8.
In the case of `Oc1c(Cl)cc(Cl)c2cccnc12`, the pKa was 2.89.
With `Nc1cccc2ccc3ncccc3c12`, the pKa is 5.03.
In the case of `c1ccc2c(c1)NCC[NH2+]2`, the pKa turned out to be 2.11.
Regarding `O=C(O[C@@H]1C[C@H]2CC[C@@H](C1)N2)[C@H](CO)c1ccccc1`, the pKa amounted to 10.3.
On to `COc1cc(/C=N/c2ncc3nc[nH]c3n2)ccc1O`, for which the pKa worked out at 2.79.
With `CN1C(C)(C)CCCC1(C)C`, the pKa was 11.2.
`c1ccc(-c2ccco2)nc1` returned a pKa of 4.18.
On the same count and under the same terms, as for `CN(C)c1ccncc1`, the figure is 9.7; as for `NCc1nc2ccccc2[nH]1`, 8.02; as for `Clc1ccc(C(Cn2ccnc2)OCc2ccc(Sc3ccccc3)cc2)c(Cl)c1` (stereo unspecified), 6.54.
On the same count and under the same terms, the figure for `C=C(C)C(=O)OCCN` is 8.7; for `N/C(Cc1ccccc1)=N\O` it is 5.32; for `Cn1cnc2ncn(C)c2c1=O` it is 2.16.
The compound `O=C([O-])[C@@H]1CCC[C@H](C(=O)[O-])N1` yielded a pKa of 9.92.
The compound `COc1ncnc2nc[nH]c12` had a pKa of 2.21.
`CC1=C(CC(C)NCC(O)c2ccc(F)cc2)CCC1(C)C` (stereo unspecified) registered a pKa of 8.51.
Same read-out and setting: the figure for `O=[N+]([O-])c1ccc(/C=C/c2nnnn2-c2ccc([N+](=O)[O-])cc2)cc1` is -3.15; for `COc1ccc2nccc(N)c2c1` it is 8.94.
In the case of `Nc1ncc(S(=O)(=O)c2ccccc2)s1`, the pKa was found to be 1.79.
Regarding `NOCc1ccc(Cl)cc1`, the pKa was determined as 4.22.
The same measure, in the same setting: the figure for `Oc1ccccc1CN1CCCNCCCNCCC1` is 9.87; for `O=[N+]([O-])c1ccc([O-])c(CN2CCOCCOCCOCCOCC2)c1` it is 9.69.
On to `COc1ccncn1`, for which the pKa is 2.5.
`CCc1cccnc1` displayed a pKa of 5.57.
Still for that read-out and setting: the figure for `CC(=O)N=C(N(C)C)N(C)C` is 7.5; for `OCCC[C@H]1CC[C@@H]2CCCN12` it is 11.2.
Compound `CN(C)c1ccc(N=O)cc1` displayed a pKa of 4.54.
On the same count and under the same terms, the figure for `C1=C(c2ccccc2)C2CCN1CC2` is 9.1.
In turn, `CCCCNCC(=O)Nc1c(C)cccc1C` returned a pKa of 8.04.
In turn, `c1ccc(-c2ccc[nH+]c2)nc1` registered a pKa of 1.52.
As to `Cc1ccccc1NN=C(C#N)C#N`, the pKa is -0.84.
Take `C[C@@H](CC(C#N)(c1ccccc1)c1ccccc1)N(C)C`: the pKa was found to be 8.31.
In turn, `N#CC1CC2CCN1CC2` (stereo unspecified) displayed a pKa of 5.85.
On the same count and under the same terms, as for `CN1C=C(C#N)CCC1`, the figure is 2.7; as for `Nc1cc(-c2ccccc2)nc2ccccc12`, 8.2.
Still for that read-out and setting: the figure for `O=C(Cc1ccccc1)C(CN1CCOCC1)c1ccccc1` (stereo unspecified) is 6.17; for `Cc1ccccc1/C(=N\CCC[NH+](C)C)c1cccc2ccccc12` it is 4.14.
Compound `CC(C)n1nnnc1N` had a pKa of 1.91.
As to `Cc1cnc2c(ccc3c(C)c(C)cnc32)c1C`, the pKa was 6.31.
Take `Cc1cccc(Cl)c1/C(=N/CCCN(C)C)c1ccccc1`: the pKa stood at 8.8.
Compound `CC1=Nc2ccccc2N=C(C)C1` yielded a pKa of 3.85.
Take `Oc1ccc(NCc2ccccc2)cc1`: the pKa was determined as 5.17.
For `c1ccc(-c2cnc3c(ccc4cccnc43)c2)cc1`, the pKa was determined as 4.82.
For `Cc1ncc(CO)c(CO)c1O`, the pKa was found to be 4.96.
Consider `CCOCCNc1ccccc1`, for which the pKa turned out to be 4.04.
`c1ncc2[nH]cnc2n1` came in with a pKa of 2.45.
Turning to `CN(C)c1cccc2c(S(=O)(=O)[N-]CCN3CCNCCNCCNCC3)cccc12`, the pKa amounted to 11.8.
With `CSc1nc(N)c2c(ncn2[C@H]2O[C@H](CO)[C@@H](O)[C@H]2O)n1`, the pKa turned out to be 3.1.
Turning to `CON`, the pKa amounted to 4.62.
As for `Nc1ccc2ccnnc2c1`, the pKa came to 4.85.
Compound `Cc1cc2ncn([C@H]3OC[C@H](O)[C@H](O)[C@@H]3O)c2cc1C` yielded a pKa of 4.7.
`CCCCCCCCCCCN` came in with a pKa of 10.6.
Same read-out and setting: as for `CCOCCn1c(N2CCCN(CCCCn3cc(C(=O)[O-])cn3)CC2)nc2ccccc21`, the figure is 8.5.
`Nc1ccc2[nH]c(CCc3ccccc3)nc2c1` came in with a pKa of 7.2.
Still for that read-out and setting: the figure for `CC(O)CN(C)CC(C)O` (stereo unspecified) is 8.7; for `O=CN1CCNCC1` it is 7.98.
Consider `[S-]c1ccc2ccccc2n1`, for which the pKa stood at 10.2.
Still for that read-out and setting: as for `Cc1cc(-c2ccccc2)nn2cc(CN3CCOCC3)nc12`, the figure is 6.3; as for `CN(C)CCOCC[NH+](C)C`, 8.21.
As for `COc1cc(CN)c(C)cc1N`, the pKa was determined as 9.54.
`COc1cccc(C(=O)N[C@H]2C[C@H]3CC[C@@H](C2)N3Cc2ccccc2)c1OC` yielded a pKa of 8.91.
`[NH3+]CCC(=O)N[C@@H](Cc1c[nH]cn1)C(=O)[O-]` showed a pKa of 6.89.
In turn, `C[NH+]1CCCC1c1cccnc1` (stereo unspecified) displayed a pKa of 3.01.
Still for that read-out and setting: the figure for `Cn1c(=O)n(C)c2c(N)cccc21` is 3.06; for `Nc1ccccc1N` it is 4.43.
Compound `COCCc1nc(C)c[nH]1` showed a pKa of 8.13.
For `Oc1ccc2nnccc2c1`, the pKa came to 3.65.
The compound `O=C(N/N=C/c1ccccc1O)c1ccncc1` gave a pKa of 3.33.
`O=C(O)c1cnccn1` displayed a pKa of -0.7.
Consider `CN(C)C`, for which the pKa was 9.96.
On the same count and under the same terms, as for `C1CCN(CC[NH+]2CCCC2)C1`, the figure is 6.3; as for `c1cncc(-c2ccoc2)c1`, 4.93; as for `Nc1ccc(Cl)cc1N`, 4.3.
